Molecules are shown by their SMILES. Structures can show the parent of a compound that is named as a salt.

The test system of this experiment is Rat skeletal muscle-derived L6 myoblasts (differentiated into myotube cells). As to the kind of experiment: Evaluation of glycogen accumulation in L6. The note with it: [14C] glycogen from D-[U-C14] glucose, 3 hours incubation, 100% = compound of Example 1 of WO/2011/058154 at 30 μM. Type of experiment: cell-based. As to the method: The glycogen accumulation activity was evaluated in skeletal muscle cells according to the published article (ANALYTICAL BIOCHEMISTRY, Vol. 261: 159-163, 1998) by the following method. Rat skeletal muscle-derived L6 myoblasts (ATCC) were seeded in a 96-well collagen-coated plate (IWAKI, 4860-010) by using a growth medium (10% FBS-containing α-MEM medium (NACALAI TESQUE, INC., 21444-05)) under a condition of 4×10^4 cells/100 μL/well. After culturing under conditions of 37° C. and 5% CO2 overnight, the medium was replaced with a differentiation medium (2% FBS-containing α-MEM medium), followed by culturing for 3 days to differentiate the myoblasts into myotube cells. On the day of evaluation, the medium was replaced with a glucose-deprived medium (0.1% BSA-containing DMEM medium (Gibco, 11966)). After culturing for 4 hours, the medium was replaced with assay media (0.1% BSA-containing DMEM medium (NACALAI TESQUE, INC., 08456-65)) containing 0.6% DMSO and one of the test compounds at a concentration which was twice the final evaluation concentration at 15 μL/well. Further, an assay medium containing D-[U—C14] glucose (PerkinElmer Inc., NEC042V) at […] was added at 15 μL/well to adjust the final volume to 30 μL/well. Then, the cells were incubated under conditions of 37° C. and 5% CO2 for 3 hours. After the incubation, each medium was removed by suction with an aspirator, and the wells were rinsed with PBS at 200 μL/well twice. Then, 1 N NaOH was added at 50 μL/well, and the cells were lysed by incubation at 60° C. for 10 minutes. After the temperature of the lysed cells was returned to room temperature, each whole cell lysate and […] glycogen (Sigma-Aldrich, G8876) at 5 μL/well were added to a Multiscreen HTS (Millipore, MSFCN6B) to which 100% ethanol was added in advance at 100 μL/well, followed by incubation at 4° C. for 20 minutes. After the incubation, aspiration was conducted by using Multiscreen HTS Vacuum Manifold (Millipore), followed by rinse with 66% ethanol at 200 μL/well twice. After ethanol remaining on the filter was completely removed by drying, MicroScint40 (PerkinElmer Inc.) was added at 50 μL/well, the amount of [14C] glycogen was measured with TopCountNXT (PerkinElmer Inc.). The activity of each test compound was calculated by the following method. Specifically, the relative activity (%) was calculated as 100×(B−A)/(C−A), where A represents a value (cpm) measured for a well not containing the compound but containing only DMSO, B represents a value measured for a well containing the compound and DMSO, and C represents a value measured for a well containing the compound of Example 1 of WO/2011/058154 at a final concentration of 30 μM. EC50 representing the concentration of the compound at which an increase in activity by 50% was caused was calculated using XLfit (idbs).
As to `CNCCN(CC(=O)O)C(=O)c1cccc(COc2ccc(-c3cc(F)c(F)cc3SC)cc2)c1` [Example 28, 2-[[3-[[4-(4,5-Difluoro-2-methylsulfanyl-phenyl)phenoxy]methyl]benzoyl]-[2-(methylamino)ethyl]amino]acetic Acid Trifluoroacetate], the 50% effective concentration (EC50) is under 300 nM. The molecule `CSc1cc(F)c(F)cc1-c1ccc(OCc2cccc(C(=O)N(CCN3CCCC3)CC(=O)O)c2)cc1` [Example 40, 2-[[3-[[4-(4,5-Difluoro-2-methylsulfanyl-phenyl)phenoxy]methyl]benzoyl]-(2-pyrrolidin-1-ylethyl)amino]acetic Acid Trifluoroacetate] showed an EC50 of 5400 nM. With `CSc1cc(F)c(F)cc1-c1ccc(OCc2cccc(C(=O)N(CC(=O)O)Cc3ccccn3)c2)cc1` [Example 20, 2-[[3-[[4-(4,5-Difluoro-2-methylsulfanyl-phenyl)phenoxy]methyl]benzoyl]-(2-pyridylmethyl)amino]acetic Acid Trifluoroacetate] the figure was 710 nM. Consider `COC[C@H]1CC[C@@H](C(=O)O)N1C(=O)c1cccc(COc2ccc(-c3cc(F)c(F)cc3SC)cc2)c1` [Example 65, (2S,5R)-1-[3-[[4-(4,5-Difluoro-2-methylsulfanyl-phenyl)phenoxy]methyl]benzoyl]-5-(methoxymethyl)pyrrolidine-2-carboxylic Acid], for which the response was half-maximal at 1800 nM (EC50).

In turn, `CSc1cc(F)c(F)cc1-c1ccc(OCc2cccc(C(=O)N(CC(=O)O)CC3CCNCC3)c2)cc1` [Example 35, 2-[[3-[[4-(4,5-Difluoro-2-methylsulfanyl-phenyl)phenoxy]methyl]benzoyl]-(4-piperidylmethyl)amino]acetic Acid Trifluoroacetate] gave an EC50 of 630 nM.

In the case of `COCCN(CC(=O)O)C(=O)c1cccc(COc2ccc(-c3cc(F)c(F)cc3SC)cc2)c1` [Example 6, 2-[[3-[[4-(4,5-Difluoro-2-methylsulfanyl-phenyl)phenoxy]methyl]benzoyl]-(2-methoxyethyl)amino]acetic Acid], the concentration for a half-maximal effect (EC50) amounted to 570 nM.

For the molecule `CSc1cc(F)c(F)cc1-c1ccc(OCc2cccc(C(=O)N(CC(=O)O)Cc3ncco3)c2)cc1` [Example 42, 2-[[3-[[4-(4,5-Difluoro-2-methylsulfanyl-phenyl)phenoxy]methyl]benzoyl]-(oxazol-2-ylmethyl)amino]acetic Acid], it took 880 nM to reach a half-maximal effect (EC50).

The values above are taken from patent publication US20160046592A1, “PHARMACEUTICAL COMPOSITION FOR THE TREATMENT OF DIABETES” (Ajinomoto Co., Inc., priority 2013, published 2016).
